Experimental data taken from ChEMBL document CHEMBL6092220 (J Med Chem, 2024).
Calls of active or inactive are those of the source. No cut-off for these calls is given here.

What was measured:
[1] = Drug concentration in female CB17 SCID mouse plasma at 5 mg/kg, iv measured at 1 hr by LC-MS/MS analysis; assay type: ADME, organism-based
[2] = Antitumor activity against human MOLM16 cells xenografted in mouse assessed as tumor regression at 25 mg/kg, iv; assay type: functional, MOLM-16
[3] = Drug concentration in female CB17 SCID mouse tumor at 5 mg/kg, iv measured at 6 hrs by LC-MS/MS analysis; assay type: ADME, organism-based, Neoplasm; conditions: read-out: Ct
[4] = target: T1, Protein cereblon/Signal transducer and activator of transcription 3 (Mus musculus) (UniProt P42227+Q8C7D2); assay: In-vivo PROTAC activity at STAT3/CRBN in female CB17 SCID mouse assessed as STAT3 depletion spleen at 5 mg/kg, iv measured at 1 hr by immunobloting analysis; assay type: functional, organism-based
[5] = Drug concentration in female CB17 SCID mouse spleen at 5 mg/kg, iv measured at 48 hrs by LC-MS/MS analysis; assay type: ADME, organism-based; conditions: read-out: Ct
[6] = target: Protein cereblon/Signal transducer and activator of transcription 3 (Homo sapiens, UniProt P40763+Q96SW2); assay: PROTAC activity at his-SUMO-tagged STAT3 (127 to 688 residues)/CRBN in human HeLa cells assessed as induction of STAT3 degradation incubated for 24 hrs by TECAN SPARK microplate reader analysis relative to control; assay type: cell-based
[7] = target: T1, Protein cereblon/Signal transducer and activator of transcription 3 (Mus musculus); assay: In-vivo PROTAC activity at STAT3/CRBN in female CB17 SCID mouse assessed as reduction in STAT3 level spleen at 5 mg/kg, iv measured at 72 hrs by immunobloting analysis; assay type: functional, organism-based; design: scale not given: the % may be the effect or the level left
[8] = Drug concentration in female CB17 SCID mouse spleen at 5 mg/kg, iv measured at 72 hrs by LC-MS/MS analysis; assay type: ADME, organism-based; conditions: read-out: Ct
[9] = target: T1, Protein cereblon/Signal transducer and activator of transcription 3 (Mus musculus); assay: In-vivo PROTAC activity at STAT3/CRBN in female CB17 SCID mouse assessed as reduction STAT3 level spleen at 10 mg/kg, iv measured at 48 hrs by Western blot analysis; assay type: functional, organism-based; design: scale not given: the % may be the effect or the level left
[10] = Half life in Sprague-Dawley rat at 5 mg/kg, iv; assay type: ADME, organism-based; conditions: in vivo
[11] = target: T1, Protein cereblon/Signal transducer and activator of transcription 3 (Mus musculus); assay: In-vivo PROTAC activity at STAT3/CRBN in female CB17 SCID mouse assessed as reduction in STAT3 level liver at 5 mg/kg, iv measured at 72 hrs by immunobloting analysis; assay type: functional, organism-based; design: scale not given: the % may be the effect or the level left
[12] = Stability in Non human primate Hepatocyte assessed as half life; assay type: ADME, cell-based; conditions: hepatocytes
[13] = target: T1, Protein cereblon/Signal transducer and activator of transcription 3 (Mus musculus); assay: In-vivo PROTAC activity at STAT3/CRBN in female CB17 SCID mouse assessed as STAT3 depletion liver at 5 mg/kg, iv measured at 1 hr by immunobloting analysis; assay type: functional, organism-based
[14] = Antiproliferative activity against human SUPM2 cells assessed as cell growth inhibition incubated for 4 days by celltiter-glo assay; assay type: functional, cell-based; conditions: SUP-M2, 96 h
[15] = Stability in mouse Hepatocyte assessed as half life; assay type: ADME, cell-based; conditions: hepatocytes
[16] = Half life in Beagle dog at 1 mg/kg, iv; assay type: ADME, organism-based, Canis lupus familiaris; conditions: in vivo
Cytochrome P450 2B6 = Cytochrome P450 2B6 (Homo sapiens, UniProt P20813); assay: Inhibition of CYP2B6 (unknown origin); assay type: ADME
[17] = target: Protein cereblon/Signal transducer and activator of transcription 5A (Homo sapiens) (UniProt P42229+Q96SW2); assay: PROTAC activity at STAT5A/CRBN in human PBMC cells assessed as reduction in STAT5A level upto 40 uM incubated for 20 hrs by Western blot analysis; assay type: cell-based
SU-DHL-1 = assay: Antiproliferative activity against human SU-DHL-1 cells assessed as cell growth inhibition incubated for 4 days by celltiter-glo assay; assay type: functional, cell-based; conditions: SU-DHL-1, 96 h
[18] = target: Protein cereblon/Signal transducer and activator of transcription 5B (Homo sapiens) (UniProt P51692+Q96SW2); assay: PROTAC activity at STAT5B/CRBN in human PBMC cells assessed as reduction in STAT5B level upto 40 uM incubated for 20 hrs by Western blot analysis; assay type: cell-based

In the case of `COC(=O)N1CC[C@H]2CC[C@@H](C(=O)N[C@@H](CCC(N)=O)C(=O)N[C@@H](Cc3ccc(F)c(F)c3)C(=O)N3CCC(CCC#Cc4cccc5c4CN(C4CCC(=O)NC4=O)C5=O)CC3)N2C(=O)[C@@H](NC(=O)c2cc3cc(C(F)(F)P(=O)(O)O)ccc3s2)C1` (stereo not given in full), the concentration at 1 h [1] is reported as 47300 ng/mL, the Activity [2] is reported as 100% and the concentration at 6 h [3] is reported as 3150 ng/g. It also gave an Activity [4] of over 70%, a concentration at 48 h [5] of 615 ng/g and an Emax [6] of 84%. The Activity [7] was over 90%, the concentration at 72 h [8] was 568 ng/g and the Activity [9] was over 90%. The half-life [10] was 1 h, the Activity [11] was over 90% and the half-life [12] was over 2 h. For the same compound, the Activity [13] was over 70%, the IC50 [14] was 390 nM and the t1/2 [15] was over 2 h. For the same compound, the half-life [16] was 2.3 h, the IC50 (Cytochrome P450 2B6) was over 10000 nM and the Activity [17] was “inactive”. The IC50 (SU-DHL-1) was 430 nM and the Activity [18] was “inactive”.
